Experimental data published in PubChem BioAssay AID1919017 (Molecular Pharmacology Branch, DTP, NCI, 2023).

System: SW1271 complex spheroids with HUVEC/MSC, growth, % test/control
Test: Anticancer human tumor SW1271 cell line growth inhibition [AhR];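 further: spheroids exposed to agents for 7 days before readout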
Conditions: for IC50: curve of first compound; for viability, T/C: stronger effect = lower value
Method in brief: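 Agents were dosed in half-log steps down from roughly clinical Cmax, or from 10 microM where Cmax was unknown, alone and with AhR antagonists. Read-out: percent test/control growth of tumor spheroids containing HUVEC and MSC stromal cells.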

[1] = second compound 0.1 µM, first compound 0.0316 µM
[2] = second compound 0.1 µM, first compound 0.1 µM
[3] = second compound 0.1 µM, first compound 0.316 µM
[4] = second compound 0.1 µM, first compound 1 µM
[5] = second compound 0.1 µM, first compound 3.16 µM
[6] = second compound 0.1 µM, first compound 10 µM
[7] = second compound 0.316 µM, first compound 0.0316 µM
[8] = second compound 0.316 µM, first compound 0.1 µM
[9] = second compound 0.316 µM, first compound 0.316 µM
[10] = second compound 0.316 µM, first compound 1 µM
[11] = second compound 0.316 µM, first compound 3.16 µM
[12] = second compound 0.316 µM, first compound 10 µM
[13] = second compound 1 µM, first compound 0.0316 µM
[14] = second compound 1 µM, first compound 0.1 µM
[15] = second compound 1 µM, first compound 0.316 µM
[16] = second compound 1 µM, first compound 1 µM
[17] = second compound 1 µM, first compound 3.16 µM
[18] = second compound 1 µM, first compound 10 µM
[19] = second compound 3.16 µM, first compound 0.0316 µM
[20] = second compound 3.16 µM, first compound 0.1 µM
[21] = second compound 3.16 µM, first compound 0.316 µM
[22] = second compound 3.16 µM, first compound 1 µM
[23] = second compound 3.16 µM, first compound 3.16 µM
[24] = second compound 3.16 µM, first compound 10 µM
[25] = second compound 10 µM, first compound 0.0316 µM
[26] = second compound 10 µM, first compound 0.1 µM
[27] = second compound 10 µM, first compound 0.316 µM
[28] = second compound 10 µM, first compound 1 µM
[29] = second compound 10 µM, first compound 3.16 µM
[30] = second compound 10 µM, first compound 10 µM

SMILES | IC50 (second compound 0.1 µM) [nM] | IC50 (second compound 0.316 µM) [nM] | IC50 (second compound 1 µM) [nM] | IC50 (second compound 3.16 µM) [nM] | IC50 (second compound 10 µM) [nM] | viability, T/C [1] [%] | viability, T/C [2] [%] | viability, T/C [3] [%] | viability, T/C [4] [%] | viability, T/C [5] [%] | viability, T/C [6] [%] | viability, T/C [7] [%] | viability, T/C [8] [%] | viability, T/C [9] [%] | viability, T/C [10] [%] | viability, T/C [11] [%] | viability, T/C [12] [%] | viability, T/C [13] [%] | viability, T/C [14] [%] | viability, T/C [15] [%] | further results
Nc1ccn(C2OC(CO)C(O)C2(F)F)c(=O)n1 (stereo not given) + Cc1ccccc1N=Nc1ccc(NC(=O)c2ccnn2C)c(C)c1 | < 31.6 | 66.1 | < 31.6 | < 31.6 | 335 | 39.2 | 48.4 | 47.2 | 52.8 | 41.3 | 37.2 | 54.6 | 49.8 | 41.8 | 39.5 | 39 | 45.1 | 41.1 | 50.1 | 56.7 | viability, T/C [16]: 41.5%; viability, T/C [17]: 45.6%; viability, T/C [18]: 40.3%; viability, T/C [19]: 43.2%; viability, T/C [20]: 51%; viability, T/C [21]: 40.7%; viability, T/C [22]: 44.2%; viability, T/C [23]: 39.7%; viability, T/C [24]: 48.5%; viability, T/C [25]: 56.5%; viability, T/C [26]: 57.3%; viability, T/C [27]: 50.2%; viability, T/C [28]: 43.1%; viability, T/C [29]: 44.7%; viability, T/C [30]: 50.4%
O=C(C=Cc1cccc(S(=O)(=O)Nc2ccccc2)c1)NO + Cc1ccccc1N=Nc1ccc(NC(=O)c2ccnn2C)c(C)c1 | 941 | 1430 | 763 | 1550 | 1860 | 86 | 87.1 | 61.9 | 54.3 | 26.5 | 17.8 | 84.3 | 91 | 64.6 | 59.8 | 35.5 | 18.9 | 105 | 98.6 | 68.5 | viability, T/C [16]: 48.1%; viability, T/C [17]: 23.1%; viability, T/C [18]: 28.4%; viability, T/C [19]: 84.4%; viability, T/C [20]: 94%; viability, T/C [21]: 86.8%; viability, T/C [22]: 57.5%; viability, T/C [23]: 36.7%; viability, T/C [24]: 22.3%; viability, T/C [25]: 104%; viability, T/C [26]: 71.2%; viability, T/C [27]: 88.2%; viability, T/C [28]: 57.6%; viability, T/C [29]: 38.3%; viability, T/C [30]: 26.1%
O=C(c1cc(Cc2n[nH]c(=O)c3ccccc23)ccc1F)N1CCN(C(=O)C2CC2)CC1 + Cc1ccccc1N=Nc1ccc(NC(=O)c2ccnn2C)c(C)c1 | > 10000 | > 10000 | > 10000 | > 10000 | > 10000 | 82.5 | 101 | 98.3 | 91.4 | 88.4 | 78.9 | 106 | 104 | 102 | 98.7 | 96.3 | 90.8 | 79.5 | 116 | 104 | viability, T/C [16]: 92.5%; viability, T/C [17]: 114%; viability, T/C [18]: 98.3%; viability, T/C [19]: 94.3%; viability, T/C [20]: 109%; viability, T/C [21]: 104%; viability, T/C [22]: 81.9%; viability, T/C [23]: 99.2%; viability, T/C [24]: 100%; viability, T/C [25]: 89.4%; viability, T/C [26]: 107%; viability, T/C [27]: 108%; viability, T/C [28]: 83.5%; viability, T/C [29]: 89.5%; viability, T/C [30]: 102%
